PubChem BioAssay (NCI)
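Following 48 hours of exposure in 96-well plates, responses at five concentrations were used to interpolate endpoints linearly. TGI denotes the concentration required for complete inhibition of growth.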

Assays:
Experiment in all cases: DTP human tumour cell line panel, 48 h
ACHN renal = test system: ACHN renal
CAKI-1 renal = test system: CAKI-1 renal
DU-145 prostate = test system: DU-145 prostate
EKVX NSCLC = test system: EKVX NSCLC
HCC-2998 colon = test system: HCC-2998 colon
HCT-15 colon = test system: HCT-15 colon
HT29 colon = test system: HT29 colon
K-562 leukemia = test system: K-562 leukemia
LOX IMVI melanoma = test system: LOX IMVI melanoma
MALME-3M melanoma = test system: MALME-3M melanoma
MDA-MB-231 breast = test system: MDA-MB-231 breast
NCI/ADR-RES ovarian = test system: NCI/ADR-RES ovarian
RPMI-8226 leukemia = test system: RPMI-8226 leukemia
SF-268 CNS = test system: SF-268 CNS
SF-295 CNS = test system: SF-295 CNS
SF-539 CNS = test system: SF-539 CNS
SK-MEL-5 melanoma = test system: SK-MEL-5 melanoma
SNB-75 CNS = test system: SNB-75 CNS
T-47D breast = test system: T-47D breast
U251 CNS = test system: U251 CNS

SMILES: CS(=O)(=O)Nc1ccc2ccccc2c1-c1c(NS(C)(=O)=O)ccc2ccccc12
- TGI (ACHN renal): > 25 µM
- TGI (CAKI-1 renal): > 25 µM
- TGI (DU-145 prostate): > 25 µM
- TGI (EKVX NSCLC): > 25 µM
- TGI (HCC-2998 colon): > 25 µM
- TGI (HCT-15 colon): > 25 µM
- TGI (HT29 colon): > 25 µM
- TGI (K-562 leukemia): > 25 µM
- TGI (LOX IMVI melanoma): > 25 µM
- TGI (MALME-3M melanoma): > 25 µM
- TGI (MDA-MB-231 breast): > 25 µM
- TGI (NCI/ADR-RES ovarian): > 25 µM
- TGI (RPMI-8226 leukemia): > 25 µM
- TGI (SF-268 CNS): > 25 µM
- TGI (SF-295 CNS): > 25 µM
- TGI (SF-539 CNS): > 25 µM
- TGI (SK-MEL-5 melanoma): > 25 µM
- TGI (SNB-75 CNS): > 25 µM
- TGI (T-47D breast): > 25 µM
- TGI (U251 CNS): > 25 µM

SMILES: COC(=O)C1Cc2cc3c(cc2C1=O)CCC3 (stereo not given)
- TGI (ACHN renal): > 100 µM
- TGI (CAKI-1 renal): > 100 µM
- TGI (DU-145 prostate): > 100 µM
- TGI (EKVX NSCLC): > 100 µM
- TGI (HCC-2998 colon): > 100 µM
- TGI (HCT-15 colon): > 100 µM
- TGI (HT29 colon): > 100 µM
- TGI (K-562 leukemia): > 100 µM
- TGI (LOX IMVI melanoma): > 100 µM
- TGI (MALME-3M melanoma): > 100 µM
- TGI (MDA-MB-231 breast): > 100 µM
- TGI (NCI/ADR-RES ovarian): > 100 µM
- TGI (RPMI-8226 leukemia): > 100 µM
- TGI (SF-268 CNS): > 100 µM
- TGI (SF-295 CNS): > 100 µM
- TGI (SF-539 CNS): > 100 µM
- TGI (SK-MEL-5 melanoma): > 100 µM
- TGI (SNB-75 CNS): > 100 µM
- TGI (T-47D breast): > 100 µM
- TGI (U251 CNS): > 100 µM

SMILES: CN(/N=C/c1ccc(C(=O)O)cc1)C1=NCCCCN1
- TGI (ACHN renal): > 100 µM
- TGI (CAKI-1 renal): > 100 µM
- TGI (DU-145 prostate): > 100 µM
- TGI (EKVX NSCLC): > 100 µM
- TGI (HCC-2998 colon): > 100 µM
- TGI (HCT-15 colon): > 100 µM
- TGI (HT29 colon): > 100 µM
- TGI (K-562 leukemia): > 100 µM
- TGI (LOX IMVI melanoma): > 100 µM
- TGI (MALME-3M melanoma): > 100 µM
- TGI (MDA-MB-231 breast): > 100 µM
- TGI (NCI/ADR-RES ovarian): > 100 µM
- TGI (RPMI-8226 leukemia): > 100 µM
- TGI (SF-268 CNS): > 100 µM
- TGI (SF-295 CNS): > 100 µM
- TGI (SF-539 CNS): > 100 µM
- TGI (SK-MEL-5 melanoma): > 100 µM
- TGI (SNB-75 CNS): > 100 µM
- TGI (T-47D breast): > 100 µM
- TGI (U251 CNS): > 100 µM

SMILES: C=CCn1c(N)c(C#N)c(C#N)c1CCC
- TGI (ACHN renal): > 100 µM
- TGI (CAKI-1 renal): > 100 µM
- TGI (DU-145 prostate): > 100 µM
- TGI (EKVX NSCLC): > 100 µM
- TGI (HCC-2998 colon): > 100 µM
- TGI (HCT-15 colon): > 100 µM
- TGI (HT29 colon): > 100 µM
- TGI (K-562 leukemia): > 100 µM
- TGI (LOX IMVI melanoma): > 100 µM
- TGI (MALME-3M melanoma): > 100 µM
- TGI (MDA-MB-231 breast): > 100 µM
- TGI (NCI/ADR-RES ovarian): > 100 µM
- TGI (RPMI-8226 leukemia): > 100 µM
- TGI (SF-268 CNS): > 100 µM
- TGI (SF-295 CNS): > 100 µM
- TGI (SF-539 CNS): > 100 µM
- TGI (SK-MEL-5 melanoma): > 100 µM
- TGI (SNB-75 CNS): > 100 µM
- TGI (T-47D breast): > 100 µM
- TGI (U251 CNS): > 100 µM
